Earlier results as cited in publication PMC10025373, “Red ginseng dietary fiber promotes probiotic properties of Lactiplantibacillus plantarum and alters bacterial metabolism” (Frontiers in Microbiology, 2023).

Tests used:
actomyosin motor = tested on: actomyosin motor; design: method as in Komatsu et al., 2004; conditions: ref Komatsu et al., 2004
Staphylococcus aureus = conditions: ref Lens et al., 2016
E. coli = conditions: ref Lens et al., 2016

Structure (SMILES): CCCCCCO [Hexanol]
- function of the actomyosin motor (actomyosin motor): modulates the function of the actomyosin motor

Structure (SMILES): CCCCOC(C)=O [butyl acetate]
- antimicrobial activity (Staphylococcus aureus): antimicrobial activity
- antimicrobial activity (E. coli): antimicrobial activity
